The subject of the test is brain MG contents. In words: Brain MG by HPLC. It is filed as in vivo, mouse. The following applies: STZ diabetic mice, NAC 3 weeks. Here is the method:
Tissue contents of MG were also determined by HPLC. The brain tissues were homogenized in the same manner as that for GSH measurement. Homogenates (581 μl) were incubated with 19 μl of 60% perchloric acid at room temperature for 24 h and then centrifuged at 12000 rpm at 4° C. for 10 min. The supernatants were derivatized with 0.1M of o-phenylenediamine for 24 h to produce 2-methylquinoxaline. On the third day, the supernatants were used for measurements of MG contents. Separation of MG derivatives, whose peak was detected at 315 nm wavelength, was performed on a 250×4.6-mm Chromegabond Ultra C-18 reversed phase HPLC column. The contents were quantified using MG standards derivatized with o-phenylenediamine. MG contents were normalized to protein concentrations and expressed as nanomoles per mg protein.

Entries after “also recorded” stand apart in the source; their conditions may differ.

This is an account of results in US20180036270A1, “A METHOD OF PROTECTING AGAINST CARBONYL STRESS INDUCED ISCHEMIA-REPERFUSION INJURY IN THE DIABETIC BRAIN VIA ADMINISTRATION OF N-ACETYLCYSTEINE” (Board of Supervisors of Louisiana State University and …, priority 2015, published 2018).

Consider `CC(=O)N[C@@H](CS)C(=O)O` [NAC, N-acetylcysteine], for which the MG-to-GSH ratio entry is listed as “significantly decreased” and the “brain MG levels” value is “a trend for decreased MG, but not significant; also recorded: remained high, although trending lower; also recorded: attenuated”.
